# In article PMC7587962, “Evaluation of Cytotoxicity and α-Glucosidase Inhibitory Activity of Amide and Polyamino-Derivatives of Lupane Triterpenoids” (Molecules, 2020):
# How the values were obtained:
# [1] = test system: 60 human tumor cell lines; settings: single dose 10 µM
# [2] = test system: UACC-257; assay: NCI-60 SRB screen: melanoma UACC-257; format: cell-based, human; settings: UACC-257
# [3] = test system: RXF 393; assay: NCI-60 SRB screen: renal cancer RXF 393; format: cell-based, human; settings: RXF 393
# [4] = test system: UO-31; assay: NCI-60 SRB screen: renal cancer UO-31; format: cell-based, human; settings: UO-31
# [5] = test system: SF-295; assay: NCI-60 SRB screen: CNS cancer SF-295; format: cell-based, human; settings: SF-295
# [6] = test system: Renal Cancer subpanel; assay: NCI-60 screen, subpanel Renal Cancer
# [7] = test system: HL-60(TB); assay: NCI-60 SRB screen: leukemia HL-60(TB); format: cell-based; settings: Homo sapiens, 48 h, HL-60(TB)
# [8] = test system: CNS cancer subpanel; assay: NCI-60 screen, subpanel CNS cancer
# [9] = test system: IGROV1; assay: NCI-60 SRB screen: ovarian cancer IGROV1; format: cell-based, human; settings: IGROV1
# [10] = test system: UACC-62; assay: NCI-60 SRB screen: melanoma UACC-62; format: cell-based, human; settings: UACC-62
# [11] = test system: SK-MEL-2; assay: NCI-60 SRB screen: melanoma SK-MEL-2; format: cell-based, human; settings: SK-MEL-2
# [12] = test system: SF-268; assay: NCI-60 SRB screen: CNS cancer SF-268; format: cell-based, human; settings: SF-268
# [13] = test system: M14; assay: NCI-60 SRB screen: melanoma M14; format: cell-based, human; settings: M14
# [14] = test system: Colon Cancer subpanel; assay: NCI-60 screen, subpanel Colon Cancer
# [15] = test system: A549/ATCC; assay: NCI-60 SRB screen: non-small cell lung cancer A549/ATCC; format: cell-based, human; settings: A549/ATCC
# [16] = test system: SR; assay: NCI-60 SRB screen: leukemia SR; format: cell-based; settings: Homo sapiens, 48 h
# [17] = test system: COLO 205; assay: NCI-60 SRB screen: colon cancer COLO 205; format: cell-based, human; settings: COLO 205
# [18] = test system: SF-539; assay: NCI-60 SRB screen: CNS cancer SF-539; format: cell-based, human; settings: SF-539
# [19] = test system: SK-OV-3; assay: NCI-60 SRB screen: ovarian cancer SK-OV-3; format: cell-based, human; settings: SK-OV-3
# [20] = test system: BT-549; assay: NCI-60 SRB screen: breast cancer BT-549; format: cell-based, human; settings: BT-549
# [21] = test system: ACHN; assay: NCI-60 SRB screen: renal cancer ACHN; format: cell-based, human
# [22] = test system: NCI-H322M; assay: NCI-60 SRB screen: non-small cell lung cancer NCI-H322M; format: cell-based, human
# [23] = test system: HS 578T; assay: NCI-60 SRB screen: breast cancer HS 578T; format: cell-based, human; settings: HS 578T
# [24] = test system: NCI-H460; assay: NCI-60 SRB screen: non-small cell lung cancer NCI-H460; format: cell-based; settings: Homo sapiens, 48 h, NCI-H460
# [25] = test system: MCF7; assay: NCI-60 SRB screen: breast cancer MCF7; format: cell-based; settings: Homo sapiens, 48 h, MCF7
# [26] = test system: HT29; assay: NCI-60 SRB screen: colon cancer HT29; format: cell-based; settings: Homo sapiens, HT29
# [27] = test system: MALME-3M; assay: NCI-60 SRB screen: melanoma MALME-3M; format: cell-based, human; settings: MALME-3M
# [28] = test system: LOX IMVI; assay: NCI-60 SRB screen: melanoma LOX IMVI; format: cell-based, human
# [29] = test system: MDA-MB-468; assay: NCI-60 SRB screen: breast cancer MDA-MB-468; format: cell-based, human
# [30] = test system: KM12; assay: NCI-60 SRB screen: colon cancer KM12; format: cell-based, human; settings: KM12
# [31] = test system: NSCL cancer subpanel; assay: NCI-60 screen, subpanel NSCL cancer
# [32] = test system: Breast cancer subpanel; assay: NCI-60 screen, subpanel Breast cancer
# [33] = test system: CAKI-1; assay: NCI-60 SRB screen: renal cancer CAKI-1; format: cell-based, human; settings: CAKI-1
# [34] = test system: SNB-19; assay: NCI-60 SRB screen: CNS cancer SNB-19; format: cell-based, human; settings: SNB-19
# [35] = test system: OVCAR-8; assay: NCI-60 SRB screen: ovarian cancer OVCAR-8; format: cell-based, human; settings: OVCAR-8
# [36] = test system: TK-10; assay: NCI-60 SRB screen: renal cancer TK-10; format: cell-based, human; settings: TK-10
# [37] = test system: HCT-15; assay: NCI-60 SRB screen: colon cancer HCT-15; format: cell-based, human; settings: HCT-15
# [38] = Homo sapiens, five concentrations, 48 h, SRB, read-out: GI50
# [39] = single dose 10 µM, read-out: Percentage Cell Growth
# [40] = five concentrations, SRB, read-out: GI50
structure (smiles),measurement,setting,value
"CC(=O)OCC12CCC(C(C)C(N)=O)C1C1CCC3C4(C)CCC(OC(C)=O)C(C)(C)C4CCC3(C)C1(C)CC2 [Compound 4, 3β,28-Diacetyloxy-(20R)-29-amino-29-oxolupane]","cancer cell lethality, range of percentage growth",[1]; cell lines with negative growth,−8.82% to −97.54%
same,cases of cancer cell lethality,[1]; number of cell lines,57
same,GI50,[2]; [38],4.83 µM
same,Percentage Cell Growth,[2]; single dose 10 µM,−46.24%
same,GI50,[3]; [38],4.28 µM
same,Percentage Cell Growth,[3]; single dose 10 µM,−64.94%
same,GI50,[4]; [38],7.57 µM
same,Percentage Cell Growth,[4]; single dose 10 µM,−97.54%
same,GI50,[5]; [38],8.57 µM
same,Percentage Cell Growth,[5]; single dose 10 µM,−50.75%
same,"MID b, average sensitivity of all cell line of particular subpanel",[6],8.12 µM
same,"Selectivity, ratio MID a: MID b",[6],0.97
same,activity at 10 µM,[7]; [39],-23.1%
same,GI50,[7]; [40],2.76 µM
same,"MID b, average sensitivity of all cell line of particular subpanel",[8],7.27 µM
same,"Selectivity, ratio MID a: MID b",[8],1.08
same,GI50,"[9]; Homo sapiens, IGROV-1, five concentrations, 48 h, SRB, read-out: GI50",13.2 µM
same,Percentage Cell Growth,[9]; single dose 10 µM,−71.25%
same,GI50,[10]; [38],5.46 µM
same,Percentage Cell Growth,[10]; single dose 10 µM,−82.97%
same,GI50,[11]; [38],10.8 µM
same,Percentage Cell Growth,[11]; single dose 10 µM,−77.63%
same,GI50,[12]; [38],6.95 µM
same,Percentage Cell Growth,[12]; single dose 10 µM,−61.04%
same,GI50,[13]; [38],7.38 µM
same,Percentage Cell Growth,[13]; single dose 10 µM,−44.25%
same,"MID b, average sensitivity of all cell line of particular subpanel",[14],5.37 µM
same,"Selectivity, ratio MID a: MID b",[14],1.47
same,Percentage Cell Growth,[15]; single dose 10 µM,9.89%
same,GI50,[15]; [38],3.97 µM
same,activity at 10 µM,[16]; [39],10.8%
same,GI50,[16]; [40],3.32 µM
same,Percentage Cell Growth,[17]; single dose 10 µM,−52.98%
same,GI50,[17]; [38],4.31 µM
same,GI50,[18]; [38],5.52 µM
same,Percentage Cell Growth,[18]; single dose 10 µM,−83.91%
same,GI50,[19]; [38],13.4 µM
same,Percentage Cell Growth,[19]; single dose 10 µM,−11.89%
same,Percentage Cell Growth,[20]; single dose 10 µM,−55.13%
same,GI50,[20]; [38],8.17 µM
same,GI50,[21]; [38],5.78 µM
same,Percentage Cell Growth,[21]; single dose 10 µM,−75.68%
same,GI50,[22]; [38],13 µM
same,Percentage Cell Growth,[22]; single dose 10 µM,−78.19%
same,Percentage Cell Growth,[23]; single dose 10 µM,−32.99%
same,GI50,[23]; [38],12.4 µM
same,activity at 10 µM,[24]; [39],-61.8%
same,GI50,[24]; [40],13.4 µM
same,activity at 10 µM,[25]; [39],-45.6%
same,GI50,[25]; [40],3.27 µM
same,activity at 10 µM,"[26]; HT-29, 48 h, single dose 10 µM, read-out: Percentage Cell Growth",-77.7%
same,GI50,"[26]; HT-29, five concentrations, 48 h, SRB, read-out: GI50",3.73 µM
same,GI50,[27]; [38],10.5 µM
same,Percentage Cell Growth,[27]; single dose 10 µM,−88.97%
same,GI50,[28]; [38],10.2 µM
same,Percentage Cell Growth,[28]; single dose 10 µM,−85.52%
same,GI50,[29]; [38],3.96 µM
same,Percentage Cell Growth,[29]; single dose 10 µM,−40.40%
same,GI50,[30]; [38],3.86 µM
same,Percentage Cell Growth,[30]; single dose 10 µM,−62.05%
same,"MID b, average sensitivity of all cell line of particular subpanel",[31],7.50 µM
same,"Selectivity, ratio MID a: MID b",[31],1.05
same,"MID b, average sensitivity of all cell line of particular subpanel",[32],7.09 µM
same,"Selectivity, ratio MID a: MID b",[32],1.11
same,Percentage Cell Growth,[33]; single dose 10 µM,−45.80%
same,GI50,[33]; [38],3.24 µM
same,GI50,[34]; [38],11.9 µM
same,Percentage Cell Growth,[34]; single dose 10 µM,−39.95%
same,GI50,[35]; [38],54.4 µM
same,Percentage Cell Growth,[35]; single dose 10 µM,−31.70%
same,GI50,[36]; [38],14.7 µM
same,Percentage Cell Growth,[36]; single dose 10 µM,−35.40%
same,Percentage Cell Growth,[37]; single dose 10 µM,−44.10%
same,GI50,[37]; [38],4.04 µM
